Test results published in patent US20240285587A1, “NOVEL THERAPEUTIC AGENT THAT SUPPRESSES METASTASIS AND PROLIFERATION OF OSTEOSARCOMA AND GLIOMA” (JAPANESE FOUNDATION FOR CANCER RESEARCH, priority 2021, published 2024).
Entries after “also recorded” stand apart in the source; their conditions may differ.

How the values were obtained:
MG-63 cells = assay: Immunostaining of phosphorylated AKT and F-actin in LPA-treated osteosarcoma cells; type: cell-based, human; settings: 100 nM LPA for 4 hours, serum-free MEM
Protocol: LPA receptors are G-protein-coupled receptors, and LPAR1 is known to activate three G proteins, Gαi/0, Gαq/11, and Gα12/13, and to activate a signal transduction system including a PI3K/AKT pathway. MG-63 cells were cultured with serum-free MEM medium overnight, then treated with 100 nM LPA for 4 hours, immunostained through a conventional method with an anti-phosphorylated AKT antibody (an antibody to detect phosphorylation of S473), rhodamine-labeled phalloidin (for binding to F actin), and Hoechst 33342 (for staining nuclei), and observed with a microscope (FIG. 3B). […] Although results are not shown herein, time-lapse analysis with a microscope was carried out to analyze effects of LPA on osteosarcoma cells, and it was observed that osteosarcoma cells formed numerous protrusions (pseudopodia) as a result of the LPA treatment.

[1] = tested on: MG-63, HuO9, or G-292 cells; assay: Transwell chamber migration ability of osteosarcoma cells with LPA as chemoattractant; type: cell-based, human; settings: 4 to 6 hours, MG-63, HuO9, G-292
Protocol: Next, the influence of LPA on migration ability and invasive ability was analyzed (FIG. 3C). Analysis of migration ability was carried out by using a Transwell chamber (Corning Incorporated, 8.0 μm pore). In an insert, 1×10^5 MG-63, HuO9, or G-292 cells suspended in 0.3 mL of serum-free MEM medium were seeded with 10 nM LPA as a chemoattractant in 1.25 mL of serum-free MEM medium put in the lower chamber, left to stand for 4 to 6 hours and then fixed, and subjected to analysis of migration ability (LPA). Separately, cells after being pretreated with 100 nM Ki16425 (Santa Cruz Biotechnology, Inc.), which is an LPAR antagonist, for 1 hour were collected, seeded in an insert, and subjected to analysis of migration ability in the presence of 100 nM Ki16425 (LPA+Ki16425).

[2] = tested on: human glioblastoma cells Onda7, YKG-1, and 42-MG-BA; assay: Transwell chamber migration ability of glioblastoma cells with LPA; type: cell-based; settings: 24 hours
Protocol: Accordingly, the effects of LPAR1 antagonists to suppress metastasis and cell proliferation are also expected to be exerted for glioma. In view of the fact that glioblastoma is the highest malignancy tumor among gliomas as described above, migration ability with addition of LPA was analyzed with glioblastoma cell strains. Analysis was performed to determine whether the mobility of glioblastoma cells is augmented in the presence of LPA. In a Transwell chamber, the human glioblastoma cells Onda7 (obtained from JCRB Cell Bank), YKG-1 (obtained from JCRB Cell Bank), and 42-MG-BA (obtained from DSMZ) were seeded at 1×10^5 cells each, with addition of 100 nM LPA as a migration factor to the underlying chamber, and 24 hours thereafter cells that migrated to the underlying chamber were stained with crystal violet and quantified. Before being collected, the cells were pretreated with 100 nM Ki16425, which is an LPAR antagonist, for 1 hour, and subjected to analysis of migration ability still in the presence of 100 nM Ki16425.

osteosarcoma cells G-292 = assay: Osteosarcoma G-292 subcutaneous xenograft model, tumor volume; type: in vivo; settings: oral 30 mg/kg, 5 consecutive days and withdrawal for 2 days from Day 1, from Day 14, SCID-beige mouse
Protocol: Into each female SCID-beige mouse, 8.2×10^5 cells of the osteosarcoma cells G-292 were subcutaneously transplanted (Day 0), and on the day after the transplantation (Day 1) oral administration according to a dosing schedule of continuous administration of the LPAR1 antagonist BMS-986020 of 30 mg/kg for 5 consecutive days and withdrawal for 2 days was initiated (FIG. 8A). The proliferation of tumor was analyzed by measuring the major axis and minor axis of tumor and calculating the tumor volume as major axis (mm)×[minor axis (mm)]^2×½.

Onda7 cells = assay: Glioblastoma intracranial xenograft model (Onda7 with Akaluc luciferase), IVIS imaging; type: in vivo, mouse; settings: oral 50 mg/kg or 100 mg/kg, 5 days on/2 days off from 3 weeks after transplantation; from 2 weeks after initiation, even for 50 mg/kg
Protocol: Examination was carried out to determine whether an LPAR1 antagonist exerts antitumor effect even for glioblastoma. Into each female SCID-beige mouse, 2×10^5 Onda7 cells with Akaluc luciferase introduced therein were intracranially transplanted. Three weeks after the transplantation, oral administration according to a dosing schedule of continuous administration of the LPAR1 antagonist BMS-986020 of 50 mg/kg or 100 mg/kg for 5 consecutive days and withdrawal for 2 days was initiated (FIG. 11A). For tumor volume, the enzymatic activity of AkaLuc luciferase stably expressed in Onda7 cells was quantified with an IVIS imaging system (FIG. 11B).

[3] = tested on: human glioblastoma cells Onda7, YKG-1, and 42-MG-BA; assay: Glioblastoma cell viability with LPAR1 antagonists, CellTiter-Gro; type: cell-based; settings: different concentrations, 72 hours; Onda7, YKG-1, 42-MG-BA
Protocol: Next, examination was carried out to determine whether LPAR1 antagonists had effects on viabilities of glioblastoma cells. On a 96-well plate, 1500 to 3000 cells of each of the human glioblastoma cells Onda7, YKG-1, and 42-MG-BA were seeded and treated with any of the LPAR1 antagonists Ki16425, BMS-986020, and ONO-7300243 in different concentrations, and the cell viabilities 72 hours thereafter were determined with CellTiter-Gro reagent (FIG. 10A).

HuO9/Akaluc cells = assay: Lung metastasis mouse model, intravenously injected HuO9/Akaluc cells, bioluminescent imaging; type: in vivo
Protocol: Into each female SCID-beige mouse (C.B-lgh-1b/GbmsTac-Prkdc^scid-Lyst^bgN7, Charles River Laboratories Japan, Inc.), 1×10^6 MG-63/Akaluc/sgCTRL or MG-63/Akaluc/sgLPAR #1 cells were intravenously injected, 3 hours and 7 days after, 100 μL of 5 mM AkaLumine-HCL was intraperitoneally injected and in vivo luminescence imaging (bioluminescent imaging, BLI) was carried out. The BLI was carried out by using an IVIS imaging system (PerkinElmer, Inc.). […] On the day of intravenous injection of cells (Day 0), the both types of cells were captured in lungs to the same degree.
Next, effects of an LPAR1 antagonist was examined. Analysis with a mouse model was carried out by using ONO-7300243 (Cayman Chemical Company), which is one of LPAR1 inhibitors. […] In the experiment, ONO-7300243 was used at different doses of 10 mg/kg and 30 mg/kg.
The BLI was carried out for 1.5 to 3 hours, 1 day, and 2 days after the administration (FIG. 6B). Immediately after the administration, it was observed that HuO9/Akaluc cells were captured in lungs at any dose.

[4] = tested on: osteosarcoma cells MG-63, HuO9, and G-292; assay: Matrigel Invasion Chamber invasive ability of osteosarcoma cells with platelet releasate; type: cell-based, human; settings: cells treated with Ki16425 in advance (100 nM), platelet releasate in underlying chamber, 22 to 24 hours
Protocol: The osteosarcoma cells MG-63, HuO9, and G-292 were each seeded in an insert (upper chamber) of a Matrigel Invasion Chamber (Corning Incorporated) at 1.5×10^5 cells/0.5 mL with the platelet releasate put in the lower chamber, and left to stand at 37° C. for 22 to 24 hours, and then cells on the top surface of the insert were completely wiped away, fixation was performed with 4% paraformaldehyde, and cells on the bottom surface of the membrane of the insert, i.e., invaded cells were stained with 1% crystal violet (FIG. 1B).
(§1) In addition, analysis of invasive ability was carried out by using a Matrigel Invasion Chamber in the same manner as for FIG. 1C (FIG. 3D). […] Accordingly, the reduction in migration ability and invasive ability due to Ki16425 was confirmed not to be caused by cytotoxicity to the cells.

LPAR3 = molecular target: T1, LPAR3 (Homo sapiens, UniProt Q9UBY5); settings: cited from earlier work
T1 sequence (Q9UBY5 1-353): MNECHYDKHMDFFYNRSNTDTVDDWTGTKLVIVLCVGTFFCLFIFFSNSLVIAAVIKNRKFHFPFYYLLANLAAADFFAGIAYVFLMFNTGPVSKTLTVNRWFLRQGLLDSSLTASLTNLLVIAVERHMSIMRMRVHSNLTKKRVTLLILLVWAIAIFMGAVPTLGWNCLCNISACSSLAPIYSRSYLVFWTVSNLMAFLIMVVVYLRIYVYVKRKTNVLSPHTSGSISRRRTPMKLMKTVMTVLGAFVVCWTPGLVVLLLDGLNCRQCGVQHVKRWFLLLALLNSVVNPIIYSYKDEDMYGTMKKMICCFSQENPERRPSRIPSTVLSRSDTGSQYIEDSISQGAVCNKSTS

LPAR1 = LPAR1 (Homo sapiens, UniProt Q92633); settings: cited from earlier work
Chain of LPAR1 (Q92633 whole entry, species assumed): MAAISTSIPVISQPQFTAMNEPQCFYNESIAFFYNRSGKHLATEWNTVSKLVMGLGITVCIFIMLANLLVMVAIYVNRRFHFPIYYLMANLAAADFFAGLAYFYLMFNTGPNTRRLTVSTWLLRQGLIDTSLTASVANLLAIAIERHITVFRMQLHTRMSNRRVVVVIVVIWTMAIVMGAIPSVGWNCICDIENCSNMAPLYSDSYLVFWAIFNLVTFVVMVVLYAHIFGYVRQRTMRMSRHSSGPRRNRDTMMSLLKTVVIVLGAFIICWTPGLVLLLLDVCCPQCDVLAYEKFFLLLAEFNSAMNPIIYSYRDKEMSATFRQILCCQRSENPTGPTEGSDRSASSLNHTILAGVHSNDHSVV

G-292 and MG-63 cells = assay: Cell viability / cytotoxicity of osteosarcoma cells with Ki16425 (FIG. 3E); type: cell-based, human
Protocol: as §1

LPAR2 = LPAR2 (Homo sapiens, UniProt Q9HBW0); settings: cited from earlier work
Chain of LPAR2 (Q9HBW0 whole entry, species assumed): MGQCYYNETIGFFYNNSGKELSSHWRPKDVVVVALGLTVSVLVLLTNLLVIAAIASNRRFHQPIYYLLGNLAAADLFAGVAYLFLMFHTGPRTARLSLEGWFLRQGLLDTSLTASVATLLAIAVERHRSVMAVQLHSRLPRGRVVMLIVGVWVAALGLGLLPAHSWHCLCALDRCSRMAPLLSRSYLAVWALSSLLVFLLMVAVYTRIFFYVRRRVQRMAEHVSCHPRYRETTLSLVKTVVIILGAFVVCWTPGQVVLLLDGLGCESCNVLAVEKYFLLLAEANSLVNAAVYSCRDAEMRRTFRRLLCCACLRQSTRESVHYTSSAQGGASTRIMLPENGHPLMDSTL

lysophosphatidic acid [LPA]
phosphorylated AKT (S473) (MG-63 cells): Activated AKT was found
migration ability (effect of LPA) ([1]; 10 nM LPA as chemoattractant): migration ability largely enhanced
migration ability (effect of LPA) ([2]; 100 nM LPA as migration factor): migration ability was largely enhanced

Cc1noc(-c2ccc(-c3ccc(C4(C(=O)O)CC4)cc3)cc2)c1NC(=O)O[C@H](C)c1ccccc1 [BMS-986020]
tumor volume / tumor proliferation (osteosarcoma cells G-292; 30 mg/kg): significant tumor proliferation-suppressing effect
tumor volume / tumor proliferation (osteosarcoma cells G-292; listed as BMS986020, 30 mg/kg): tumor proliferation is suppressed
proliferation of glioblastoma cells / relative tumor volume (Onda7 cells): almost comparable to that at the transplantation
cell viabilities [3]: Reduced cell viabilities

COc1cc(C(=O)N(CCCc2ccccc2)Cc2ccc(CC(=O)O)cc2)cc(OC)c1C [ONO-7300243]
Total Flux measured with the IVIS (HuO9/Akaluc cells; Day 1, 30 mg/kg administration group vs solvent administration group): significant difference
Total Flux measured with the IVIS (HuO9/Akaluc cells; Day 2, 10 mg/kg administration group vs 30 mg/kg administration group): significant difference
Total Flux measured with the IVIS (HuO9/Akaluc cells; day of injection of cells, among the groups): no significant difference
osteosarcoma cells captured in lungs (BLI) / lung metastasis (HuO9/Akaluc cells; oral 10 mg/kg and 30 mg/kg before i.v. HuO9/Akaluc cells, a day or two later, vs solvent administration group): lung metastasis is suppressed; also recorded: reduction of osteosarcoma cells captured in lungs
cell viabilities [3]: Reduced cell viabilities

Cc1noc(-c2ccc(CSCCC(=O)O)cc2)c1NC(=O)OC(C)c1ccccc1Cl (stereo not drawn) [Ki16425]
invasive ability [4]: cancellation of the effects of platelet releasate; also recorded: largely reduced invasive ability
inhibitory effect to LPAR3 (LPAR3): exhibits inhibitory effect
inhibitory effect to LPAR1 (LPAR1): exhibits inhibitory effect
cytotoxicity (G-292 and MG-63 cells; 100 nM, 4 to 6 hours (migration) or 22 to 24 hours (invasion)): no cytotoxicity was found
cell viabilities (G-292 and MG-63 cells; cultured for 72 hours, Ki16425 at 500 nM or more, G-292 and MG-63): reduced cell viabilities
inhibitory effect to LPAR2 (LPAR2): exhibits inhibitory effect
migration ability ([1]; 100 nM Ki16425 (1 hour pretreatment and during assay), 10 nM LPA in lower chamber): cancellation of the effects of LPA; also recorded: largely reduced migration ability
cell viabilities [3]: Reduced cell viabilities
migration ability ([2]; 100 nM Ki16425 (1 hour pretreatment and during assay), 100 nM LPA): largely reduced migration ability
